The values that follow come from patent US8148366B2, “Substituted pyrazolo[3,4-E][diazepin-6-5(H)ones and analogues thereof, their preparation and their use as antibacterial medicaments” (Novexel SA, priority 2008, dated 2012).

≈ marks a conversion by molar mass, not a printed value.

The test system of the first test is Pseudomonas aeruginosa (1771 Wild-type strain). In words: Activity in vitro, method of dilutions in liquid medium (M.I.C.). Type of test: cell-based. Particulars: incubation 24 hours at 37° C., growth inhibition by transillumination. The method, then: Activity in vitro, method of dilutions in liquid medium:
A series of tubes is prepared, into which the same quantity of sterile nutritive medium is distributed, increasing quantities of the product to be studied are distributed into each tube then each tube is seeded with a bacterial strain. After incubation for 24 hours in an oven at 37° C., growth inhibition is assessed by transillumination, which makes it possible to determine the minimum inhibitory concentrations (M.I.C.) expressed in μg/ml.
Tests are thus carried out with the products of Examples 1 to 19 in comparison with the products of Examples 11 of the Application WO 04/052891 and 18 of the Application WO 02/100860.
For `NC[C@@H]1c2nn(C(=O)N3CCNCC3)cc2[C@H]2CN1C(=O)N2OS(=O)(=O)O` (relative stereo) [Ex2, trans 8-(aminomethyl)-2-(4-piperazine-1-carbonyl)-4,8-dihydro-5-(sulphooxy)-4,7-methano-7H-pyrazolo[3,4-e][1,3]diazepin-6(5H)-one], the “MIC (μg/mL) 24 h (P, aerug, 1771)” value worked out at 0.5 µg/mL (≈ 1.25 µM).
Turning to `N=C(N)n1ncc2c1[C@@H](CN)N1C[C@H]2N(OS(=O)(=O)O)C1=O` (relative stereo) [Ex9], the “MIC (μg/mL) 24 h (P, aerug, 1771)” value is 0.5 µg/mL (≈ 1.51 µM).
On to `Cn1ncc2c1[C@@H](CN)N1C[C@H]2N(OC(F)(F)C(=O)O)C1=O` (relative stereo) [Ex18, trans 8-(amino-methyl)-4,8-dihydro-1-methyl-6-oxo-5-(carboxy-difluoro-methoxy)-4,7-methano-7H-pyrazolo[3,4-e][1,3] diazepin-6(5H)-one], for which the “MIC (μg/mL) 24 h (P, aerug, 1771)” value was determined as 0.5 µg/mL (≈ 1.58 µM).
Still for that read-out and setting: to “trans 8-(aminomethyl)-2-amino-carbamoyl-4,8-dihydro-5-(sulphooxy)-4,7-methano-7H-pyrazolo[3,4-e][1,3]diazepin-6(5H)-one [Ex19]” belongs 0.5 µg/mL.

The same test, now with this note: incubation 24 hours at 37° C., growth inhibition by transillumination, read-out: MIC (μg/mL) 24 h (P, aerug, 1771).
On to `CN(C)CCNC(=O)n1cc2c(n1)[C@@H](CN)N1C[C@H]2N(OS(=O)(=O)O)C1=O` (relative stereo) [Ex3, trans 8-(aminomethyl)-4,8-dihydro-2-(2-dimethylaminoethylcarbamoyl)-5-(sulphooxy)-4,7-methano-7H-pyrazolo[3,4-e][1,3] diazepin-6(5H)-one], for which the MIC is 1 µg/mL (≈ 2.48 µM).
Same read-out and setting: to `NC[C@@H]1c2nn(C(=O)N3CCCC3)cc2[C@H]2CN1C(=O)N2OS(=O)(=O)O` (relative stereo) [Ex4, trans 8-(aminomethyl)-4,8-dihydro-2-(pyrrolidine-1-carbonyl)-5-(sulphooxy)-4,7-methano-7H-pyrazolo[3,4-e][1,3]diazepin-6(5H)-one] belongs 8 µg/mL (≈ 20.7 µM).
Still for that read-out and setting: for `NCCCNC(=O)n1cc2c(n1)[C@@H](CN)N1C[C@H]2N(OS(=O)(=O)O)C1=O` (relative stereo) [Ex5, trans 8-(aminomethyl)-2-[(3-amino-propyl)carbamoyl]-4,8-dihydro-5-(sulphooxy)-4,7-methano-7H-pyrazolo[3,4-e][1,3] diazepin-6(5H)-one] the value was 0.5 µg/mL (≈ 1.28 µM); for `CC(N)CCNC(=O)n1cc2c(n1)[C@@H](CN)N1C[C@H]2N(OS(=O)(=O)O)C1=O` (relative stereo) [Ex6, trans 8-(aminomethyl)-2-[(3-amino-butyl)carbamoyl]-4,8-dihydro-5-(sulphooxy)-4,7-methano-7H-pyrazolo[3,4-e][1,3] diazepin-6(5H)-one], 4 µg/mL (≈ 9.92 µM).
`NC[C@@H]1c2nn(C(=O)NCC(N)=O)cc2[C@H]2CN1C(=O)N2OS(=O)(=O)O` (relative stereo) [Ex7, trans 8-(aminomethyl)-2-(carbamoylmethyl-carbamoyl)-4,8-dihydro-5-(sulphooxy)-4,7-methano-7H-pyrazolo[3,4-e][1,3]diazepin-6(5H)-one]: the MIC worked out at 1 µg/mL (≈ 2.57 µM).
For the molecule `N=C(N)n1cc2c(n1)[C@@H](CN)N1C[C@H]2N(OS(=O)(=O)O)C1=O` (relative stereo) [Ex10, trans 8-(aminomethyl)-2-(carbamimidoyl)-4,8-dihydro-5-(sulphooxy)-4,7-methano-7H-pyrazolo[3,4-e] [1,3]diazepin-6(5H)-one], the MIC worked out at 0.5 µg/mL (≈ 1.51 µM).
Same read-out and setting: to `NC[C@@H]1c2nn(C(=O)C3CCNCC3)cc2[C@H]2CN1C(=O)N2OS(=O)(=O)O` (relative stereo) [Ex11, trans-8-(amino-methyl)-4,8-dihydro-2-(piperidine-4-carbonyl)-5-(sulphooxy)-4,7-methano-7H-pyrazolo[3,4-e][1,3]diazepin-6(5H)-one] belongs 0.25 µg/mL (≈ 0.624 µM); to `NC[C@@H]1c2nn(CCC(N)C(=O)O)cc2[C@H]2CN1C(=O)N2OS(=O)(=O)O` (relative stereo) [Ex12, trans 8-(amino-methyl)-2-(3-amino-3-carboxy-propyl)-4,8-dihydro-5-(sulphooxy)-4,7-methano-7H-pyrazolo[3,4-e][1,3] diazepin-6(5H)-one], 0.5 µg/mL (≈ 1.28 µM).
Still for that read-out and setting: for `N=C(N)NC[C@@H]1c2[nH]ncc2[C@H]2CN1C(=O)N2OS(=O)(=O)O` (relative stereo) [Ex13, trans 8-(guanidino-methyl)-4,8-dihydro-5-(sulphooxy)-4,7-methano-7H-pyrazolo[3,4-e][1,3]diazepin-6(5H)-one] the value was 1 µg/mL (≈ 3.02 µM); for `CCNC(=O)n1ncc2c1[C@@H](CNC(=N)N)N1C[C@H]2N(OS(=O)(=O)O)C1=O` (relative stereo) [Ex15, trans 8-(guanidino-methyl)-1-ethylcarbamoyl-4,8-dihydro-5-(sulphooxy)-4,7-methano-7H-pyrazolo[3,4-e][1,3]diazepin-6(5H)-one], greater than 32 µg/mL; for `CCNC(=O)n1cc2c(n1)[C@@H](CNC(=N)N)N1C[C@H]2N(OS(=O)(=O)O)C1=O` (relative stereo) [Ex16, trans 8-(guanidino-methyl)-2-ethylcarbamoyl-4,8-dihydro-5-(sulphooxy)-4,7-methano-7H-pyrazolo[3,4-e][1,3] diazepin-6(5H)-one], 16 µg/mL (≈ 39.8 µM).
On the same count and under the same terms, for `N=C(N)NC[C@@H]1c2nn(C(N)=O)cc2[C@H]2CN1C(=O)N2OS(=O)(=O)O` (relative stereo) [Ex17, trans 8-(guanidino-methyl)-2-carbamoyl-4,8-dihydro-5-(sulphooxy)-4,7-methano-7H-pyrazolo[3,4-e][1,3]diazepin-6(5H)-one] the value was 1 µg/mL (≈ 2.67 µM).
